# Data reported in patent US20110268794A1, “METHODS AND MATERIALS FOR DELIVERING BILE ACIDS” (priority 2009, published 2011).
# How the values were obtained:
# Type in all cases: in vivo, human
# healthy volunteers [1] = experiment: Daily stool diaries (bowel function), healthy volunteers (Example 1); conditions: for Ease of passage (scale 1-7) / Stool frequency per day / Stool consistency by Bristol Stool Form Scale: N = 20, mean ± SEM; for Stool frequency per day: overall p < 0.001; for Stool consistency by Bristol Stool Form Scale: scale 1 hard lumps to 7 watery
# Method: This was a double-blind, placebo-controlled, randomized study evaluating the effects of sodium chenodeoxycholate (CDC) or placebo orally administered once daily for four days in healthy volunteers. Three groups (n=20 each) were randomized to oral placebo, 500 mg or 1000 mg CDC daily (in pH-sensitive, methacrylate-coated capsules), each for a period of 4 days. During at least 3 days of the baseline period and the 4 days of treatment period, each patient noted each bowel movement with the exact time and with the description of stool consistency according to the BSFS (ranging from 1=“hard lumps” to 7=“watery”), and the ease of passage (ranging from 1=“manual disimpaction” to 7=“incontinence”), and answered whether or not they felt they had completely emptied their bowels (1=“yes” and 0=“no”) (Bouras et al., Gastroenterology, 120:354-60 (2001)). The diaries contained values for stool consistency, stool frequency, ease of passage and sense of completely emptying their bowels.
# female IBS-C patients [2] = experiment: Bowel function by daily questionnaires, female IBS-C patients (Example 2)
# Method: (§1) The following study was performed to evaluate the effects of ileocolonic delivery of sodium chenodeoxycholate (CDC) on gastrointestinal (GI) and colonic transit and bowel function in constipation-predominant irritable bowel syndrome (IBS-C). A double-blind, placebo-controlled study evaluated effects of once-daily CDC for 4 days in 36 female IBS-C patients (mean age 41.80±1.62 y). Patients were randomized to oral placebo, 500 mg or 1000 mg CDC delivered to the ileocolonic region in pH-sensitive, methacrylate-coated capsules. Fasting serum 7α-hydroxy-4-cholesten-3-one (7αC4) was measured to assess for baseline abnormalities in bile acid synthesis. […] Treatment effects were compared by ANCOVA with BMI as a covariate, and each CDC dose against placebo by Dunnett's test.
# female IBS-C patients [3] = experiment: Scintigraphic gastrointestinal and colonic transit, female IBS-C patients (Example 2)
# Method: as §1
# healthy volunteers [4] = experiment: Scintigraphic gastrointestinal and colonic transit, healthy volunteers (Example 1); conditions: for AC t1/2 (ascending colon emptying) / CF 6 (colonic filling at 6 hours) / GC 4 (colonic geometric center at 4 h) / GC 6 (colonic geometric center at 6 h) / GC 8 (colonic geometric center at 8 h) / GC 48 (colonic geometric center at 48 h) / GC 24 (colonic geometric center at 24 h) / GE t1/2 (gastric emptying): N = 20, mean ± SEM; for GC 48 (colonic geometric center at 48 h): overall p < 0.0001; for GC 24 (colonic geometric center at 24 h): overall p = 0.01; for GE t1/2 (gastric emptying): methacrylate-coated capsule
# Method: This was a double-blind, placebo-controlled, randomized study evaluating the effects of sodium chenodeoxycholate (CDC) or placebo orally administered once daily for four days in healthy volunteers.
# Randomization was 1:1:1 for placebo, chenodeoxycholate 500 mg, and chenodeoxycholate 1000 mg. Sodium chenodeoxycholate was purchased from Calbiochem, EMD Chemicals Inc., and Mayo pharmacy prepared identical placebo and chenodeoxycholate capsules, all of which were coated with the pH sensitive polymer, methacrylate. The latter dissolves at the neutral pH found in the distal ileum and was used to ensure ileocolonic delivery of the chenodeoxycholate.
# Three groups (n=20 each) were randomized to oral placebo, 500 mg or 1000 mg CDC daily (in pH-sensitive, methacrylate-coated capsules), each for a period of 4 days.
# Gastrointestinal (GI) and colonic transit was conducted by a scintigraphic method (Burton et al., J. Nucl. Med., 38:1807-10 (1997); Cremonini et al., Aliment Pharmacol. Ther., 16:1781-90 (2002); and Camilleri and Zinsmeister, Gastroenterology, 103:36-42 (1992)) during the last 48 hours of drug ingestion (FIG. 1).
# An adaptation of an established scintigraphic method was used to measure GI and colonic transit (Burton et al., J. Nucl. Med., 38:1807-10 (1997); Cremonini et al., Aliment Pharmacol. Ther., 16:1781-90 (2002); and Camilleri and Zinsmeister, Gastroenterology, 103:36-42 (1992)). ^111In was adsorbed on to activated charcoal particles and delivered to the colon by means of a methacrylate-coated, delayed-release oral capsule. The capsule was ingested following an overnight fast. After the capsule emptied from the stomach, a ^99mTc-sulfur colloid radiolabeled meal was ingested. It consisted of two scrambled eggs, one slice of whole wheat bread, and one glass of whole milk. This meal facilitates measurement of gastric and small bowel transit. Subjects ingested standardized meals for lunch and dinner at 4 and 8 hours after the radiolabeled meal, respectively. Abdominal scans were obtained every hour for the first 6 hours (the first 4 hours for the assessment of gastric emptying) and at 8, 24, and 48 hours after ingestion of the ^111In capsule. The performance characteristics of this test are summarized elsewhere (Cremonini et al., Aliment Pharmacol. Ther., 16:1781-90 (2002)).
# The counts in the stomach and each of four colonic regions: ascending, transverse, descending, and combined sigmoid and rectum were quantitated with a variable region of interest program. Counts were corrected for isotope decay, tissue attenuation, and downscatter of ^111In counts in the ^99mTc window (Burton et al., J. Nucl. Med., 38:1807-10 (1997) and Cremonini et al., Aliment Pharmacol. Ther., 16:1781-90 (2002)).
# Gastric emptying t1/2 is a measure of the time for 50% of the radiolabeled meal (identifiable by radiolabeled tracer) to empty from the stomach. Colonic filling at 6 hours, or the proportion of the radiolabeled meal to have reached the colon at 6 hours is an indirect measurement of small bowel transit time. Overall colonic transit was summarized as the colonic geometric center (GC) at specified times. The GC is the weighted average of counts in the different colonic regions [ascending (AC), transverse (TC), descending (DC), rectosigmoid (RS)] and stool, respectively 1 to 5. Thus, at any time, the proportion of counts in each colonic region is multiplied by its weighting factor as follows:
# (% AC×1+% TC×2+% DC×3+% RS×4+% stool×5)/100=GC
# Thus, a higher GC reflects a faster colonic transit. Ascending colon emptying was summarized by the t1/2 calculated by linear interpolation of values on the AC emptying curve.
# The primary endpoints were the colonic GC at 24 hours (GC 24) and AC emptying t1/2.
# female IBS-C patients [5] = experiment: Side effects, female IBS-C patients (Example 2)
# Method: as §1
# healthy volunteers [6] = experiment: Adverse events, healthy volunteers (Example 1); conditions: for Percent of participants dizzy, light-headed / Percent of participants with URI / Percent of participants with diarrhea / Percent of participants with gas / Percent of participants with headache / Percent of participants with loose stools / Percent of participants with lower abdo bloating / Percent of participants with lower abdo pain/cramps / Percent of participants with muscle aches / Percent of participants with nausea / Percent of participants with sensation of warmth / Percent of participants with sweating: n=20
# Method: This was a double-blind, placebo-controlled, randomized study evaluating the effects of sodium chenodeoxycholate (CDC) or placebo orally administered once daily for four days in healthy volunteers. An independent statistician generated the randomization code. Clinical and laboratory study personnel were blinded throughout the study until data were locked and analyzed. Safety monitoring was conducted throughout the study. Three groups (n=20 each) were randomized to oral placebo, 500 mg or 1000 mg CDC daily (in pH-sensitive, methacrylate-coated capsules), each for a period of 4 days.
# [7] = CDC 500 mg once daily 4 days, N = 11, mean ± SEM
# [8] = CDC 1000 mg once daily 4 days, N = 12, mean ± SEM
# [9] = 500 mg or 1000 mg once daily 4 days vs placebo
# [10] = 500 mg or 1000 mg once daily 4 days vs placebo, healthy volunteers
smiles,measurement,setting,value
"C[C@H](CCC(=O)O)[C@H]1CC[C@H]2[C@@H]3[C@H](O)C[C@@H]4C[C@H](O)CC[C@]4(C)[C@H]3CC[C@]12C [CDC, sodium chenodeoxycholate]",Overall treatment effect on sense of incomplete evacuation,"healthy volunteers [1]; 500 mg or 1000 mg once daily 4 days vs placebo, healthy volunteers, p=0.02",significant overall treatment effects
same,Ease of passage (scale 1-7),healthy volunteers [1]; CDC 500 mg once daily 4 days,4.1 ± 0.06
same,Stool frequency per day,healthy volunteers [1]; CDC 500 mg once daily 4 days,1.50 ± 0.18 per day
same,Stool consistency by Bristol Stool Form Scale,healthy volunteers [1]; CDC 500 mg once daily 4 days,4.29 ± 0.19
same,Ease of passage (scale 1-7),healthy volunteers [1]; CDC 1000 mg once daily 4 days,4.3 ± 0.06
same,Stool frequency per day,healthy volunteers [1]; CDC 1000 mg once daily 4 days,2.01 ± 0.15 per day
same,Stool consistency by Bristol Stool Form Scale,healthy volunteers [1]; CDC 1000 mg once daily 4 days,4.80 ± 0.15
same,Stool consistency (Bristol Scale),female IBS-C patients [2]; [7],3.58 ± 0.33
same,Stool frequency per day,female IBS-C patients [2]; [7],1.22 ± 0.19 per day
same,Stool consistency (Bristol Scale),female IBS-C patients [2]; [8],3.47 ± 0.23
same,Stool frequency per day,female IBS-C patients [2]; [8],1.27 ± 0.13 per day
same,Effect on colonic filling at 6 hours,female IBS-C patients [3]; [9],not affected
same,Effect on gastric emptying t1/2,female IBS-C patients [3]; [9],not affected
same,AC t1/2 (ascending colon emptying),female IBS-C patients [3]; [7],9.55 ± 2.90 h
same,CF 6 (colonic filling at 6 hours),female IBS-C patients [3]; [7],52.64 ± 6.67%
same,GC 24 (colonic geometric center at 24 hours),female IBS-C patients [3]; [7],3.12 ± 0.43
same,AC t1/2 (ascending colon emptying),female IBS-C patients [3]; [8],8.19 ± 1.78 h
same,CF 6 (colonic filling at 6 hours),female IBS-C patients [3]; [8],54.75 ± 7.05%
same,GC 24 (colonic geometric center at 24 hours),female IBS-C patients [3]; [8],3.49 ± 0.36
same,Treatment effect on colonic filling,healthy volunteers [4]; [10],not detected
same,Treatment effect on gastric emptying,healthy volunteers [4]; [10],not detected
same,AC t1/2 (ascending colon emptying),healthy volunteers [4]; CDC 500 mg once daily 4 days,12.1 ± 2.1 h
same,CF 6 (colonic filling at 6 hours),healthy volunteers [4]; CDC 500 mg once daily 4 days,49.6 ± 7.0%
same,GC 4 (colonic geometric center at 4 h),healthy volunteers [4]; CDC 500 mg once daily 4 days,0.87 ± 0.18
same,GC 6 (colonic geometric center at 6 h),healthy volunteers [4]; CDC 500 mg once daily 4 days,1.53 ± 0.28
same,GC 8 (colonic geometric center at 8 h),healthy volunteers [4]; CDC 500 mg once daily 4 days,1.83 ± 0.27
same,GC 48 (colonic geometric center at 48 h),healthy volunteers [4]; CDC 500 mg once daily 4 days,4.10 ± 0.21
same,GC 24 (colonic geometric center at 24 h),healthy volunteers [4]; CDC 500 mg once daily 4 days,2.80 ± 0.27
same,GE t1/2 (gastric emptying),healthy volunteers [4]; CDC 500 mg oral once daily 4 days,2.115 ± 0.0883 h
same,AC t1/2 (ascending colon emptying),healthy volunteers [4]; CDC 1000 mg once daily 4 days,10.7 ± 1.9 h
same,CF 6 (colonic filling at 6 hours),healthy volunteers [4]; CDC 1000 mg once daily 4 days,46.0 ± 7.1%
same,GC 4 (colonic geometric center at 4 h),healthy volunteers [4]; CDC 1000 mg once daily 4 days,1.27 ± 0.33
same,GC 6 (colonic geometric center at 6 h),healthy volunteers [4]; CDC 1000 mg once daily 4 days,2.20 ± 0.43
same,GC 8 (colonic geometric center at 8 h),healthy volunteers [4]; CDC 1000 mg once daily 4 days,2.52 ± 0.39
same,GC 48 (colonic geometric center at 48 h),healthy volunteers [4]; CDC 1000 mg once daily 4 days,4.92 ± 0.05
same,GC 24 (colonic geometric center at 24 h),healthy volunteers [4]; CDC 1000 mg once daily 4 days,3.76 ± 0.30
same,GE t1/2 (gastric emptying),healthy volunteers [4]; CDC 1000 mg oral once daily 4 days,2.383 ± 0.235 h
same,Safety issues,female IBS-C patients [5]; 500 mg or 1000 mg once daily 4 days,No safety issues were identified
same,Patients with diarrhea,female IBS-C patients [5]; CDC 500 mg once daily 4 days,18%
same,Patients with lower abdominal cramps/pain,female IBS-C patients [5]; CDC 500 mg once daily 4 days,45%
same,Patients with diarrhea,female IBS-C patients [5]; CDC 1000 mg once daily 4 days,17%
same,Patients with lower abdominal cramps/pain,female IBS-C patients [5]; CDC 1000 mg once daily 4 days,42%
same,Serious adverse events,"healthy volunteers [6]; 500 mg or 1000 mg once daily 4 days, healthy volunteers",no serious adverse events
same,"Percent of participants dizzy, light-headed",healthy volunteers [6]; CDC 500 mg once daily 4 days,10%
same,Percent of participants with URI,healthy volunteers [6]; CDC 500 mg once daily 4 days,0%
same,Percent of participants with diarrhea,healthy volunteers [6]; CDC 500 mg once daily 4 days,40%
same,Percent of participants with gas,healthy volunteers [6]; CDC 500 mg once daily 4 days,5%
same,Percent of participants with headache,healthy volunteers [6]; CDC 500 mg once daily 4 days,25%
same,Percent of participants with loose stools,healthy volunteers [6]; CDC 500 mg once daily 4 days,15%
same,Percent of participants with lower abdo bloating,healthy volunteers [6]; CDC 500 mg once daily 4 days,5%
same,Percent of participants with lower abdo pain/cramps,healthy volunteers [6]; CDC 500 mg once daily 4 days,15%
same,Percent of participants with muscle aches,healthy volunteers [6]; CDC 500 mg once daily 4 days,5%
same,Percent of participants with nausea,healthy volunteers [6]; CDC 500 mg once daily 4 days,5%
same,Percent of participants with sensation of warmth,healthy volunteers [6]; CDC 500 mg once daily 4 days,5%
same,Percent of participants with sweating,healthy volunteers [6]; CDC 500 mg once daily 4 days,5%
same,"Percent of participants dizzy, light-headed",healthy volunteers [6]; CDC 1000 mg once daily 4 days,5%
same,Percent of participants with URI,healthy volunteers [6]; CDC 1000 mg once daily 4 days,10%
same,Percent of participants with diarrhea,healthy volunteers [6]; CDC 1000 mg once daily 4 days,75%
same,Percent of participants with gas,healthy volunteers [6]; CDC 1000 mg once daily 4 days,5%
same,Percent of participants with headache,healthy volunteers [6]; CDC 1000 mg once daily 4 days,25%
same,Percent of participants with loose stools,healthy volunteers [6]; CDC 1000 mg once daily 4 days,20%
same,Percent of participants with lower abdo bloating,healthy volunteers [6]; CDC 1000 mg once daily 4 days,0%
same,Percent of participants with lower abdo pain/cramps,healthy volunteers [6]; CDC 1000 mg once daily 4 days,75%
same,Percent of participants with muscle aches,healthy volunteers [6]; CDC 1000 mg once daily 4 days,0%
same,Percent of participants with nausea,healthy volunteers [6]; CDC 1000 mg once daily 4 days,20%
same,Percent of participants with sensation of warmth,healthy volunteers [6]; CDC 1000 mg once daily 4 days,5%
same,Percent of participants with sweating,healthy volunteers [6]; CDC 1000 mg once daily 4 days,5%
